Assay results: ChEMBL document CHEMBL1137194, “Possible differences in modes of agonist and antagonist binding at human 5-HT6 receptors” (Bioorg Med Chem Lett, 2004)

target: 5-hydroxytryptamine receptor 6 (Homo sapiens, UniProt P50406); assay: Binding affinity against 5-hydroxytryptamine 6 receptor
Sequence (P50406 whole entry): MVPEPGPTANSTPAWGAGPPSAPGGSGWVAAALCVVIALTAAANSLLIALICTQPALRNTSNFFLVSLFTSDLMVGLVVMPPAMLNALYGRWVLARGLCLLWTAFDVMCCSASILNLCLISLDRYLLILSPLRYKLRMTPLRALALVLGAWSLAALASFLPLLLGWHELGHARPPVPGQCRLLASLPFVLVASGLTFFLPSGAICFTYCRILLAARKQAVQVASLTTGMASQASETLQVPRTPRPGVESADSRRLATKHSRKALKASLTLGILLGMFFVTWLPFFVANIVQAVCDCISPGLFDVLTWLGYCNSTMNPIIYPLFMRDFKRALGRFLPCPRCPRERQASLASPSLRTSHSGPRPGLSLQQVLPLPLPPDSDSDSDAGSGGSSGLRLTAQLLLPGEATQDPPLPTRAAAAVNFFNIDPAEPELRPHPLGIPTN

Q: How did the Ki turn out when `CN(C)CCn1ccc2ccccc21` was run?
A: The Ki was greater than 5000 nM.

Q: How did the Ki turn out when `CCN(CC)CCc1cn(S(=O)(=O)c2ccccc2)c2ccc(OC)cc12` was run?
A: The Ki was 6 nM.

Q: For `CN(C)CC[N+]1=CCc2ccccc21`, which Ki is on record?
A: The Ki was 1900 nM.

Q: How did the Ki turn out when `CN(C)CCN1CCc2ccccc21` was run?
A: The Ki was greater than 5000 nM.

Q: For `CCCc1c(CCN(C)C)c2cc(OC)ccc2n1S(=O)(=O)c1ccccc1`, which Ki is on record?
A: Its Ki is 2.3 nM.

Q: `COc1ccc2c(c1)c(CCN(C)C)cn2S(=O)(=O)c1ccc(N)cc1` was tested. Which Ki did it give?
A: The Ki was 0.6 nM.

Q: With `COc1ccc2c(c1)c(CCN(C)C)cn2S(=O)(=O)c1ccccc1` as the compound, how does the Ki read?
A: The Ki was 2 nM.

Q: How did the Ki turn out when `CN(C)CCc1cn(Cc2ccccc2)c2ccccc12` was run?
A: Its Ki is 6 nM.

Q: For `CN(C)CCC1=CC(Cc2ccccc2)c2ccccc21` (centres undefined), which Ki is on record?
A: Its Ki is 3 nM.
